What all share (type): physicochemical
A short description of series [1]: Solution stability of ^177Lu-C at −78° C., RCP by radio-HPLC. The note with it: ^177Lu-C prepared using 2 mg GA. As for the experimental part:
(§1) The integrity of a radiopharmaceutical is measured by the radiochemical purity (RCP) of the radiolabeled compound using ITLC or more preferably HPLC. The advantage of using HPLC is that radio-impurities caused by radiolytic degradation can be separated from the radiopharmaceutical under optimized chromatographic conditions. […] The radiopharmaceutical compositions of this invention are effective in maintaining the long-term stability of samples that have been frozen, thawed, and re-tested periodically for 7 days.
(§2) The initial RCP of a radiopharmaceutical is largely dependent on radiolabeling conditions such as pH, heating temperature and time. Once a radiopharmaceutical is prepared in high yield, the stability of the radiopharmaceutical composition is measured by the` RCP change of the radiopharmaceutical over a certain period of time. For comparison purposes, sodium gentisate or sodium ascorbate was often used as the reference since they have been used in various radiopharmaceutical formulations.
HPLC method 3 used a HP-1100 HPLC system with a UV/visible detector (λ=220 nm), an IN-US radio-detector, and a Zorbax C18 column (4.6 mm×250 mm, 80 Å pore size). The flow rate was 1 mL/min with a gradient mobile phase starting from 90% solvent A (0.025 M ammonium acetate buffer, pH 6.8) and 10% solvent B (acetonitrile) at 0 min to 88% solvent A and 12% solvent B at 18 min, followed by an isocratic wash using 40% of solvent A and 60% solvent B from 19 to 25 min.
The ITLC method used Gelman Sciences silica-gel ITLC paper strips and 1:1 mixture of acetone and saline as eluant. By this method, the radiolabeled compounds migrate to the solvent front while [^90Y]/^177Lu]colloid and [^90Y]/^177Lu]acetate remain at the origin.
(§3) The 0.5 M ammonium acetate buffer (pH 8.0) was first degassed under vacuum for 1-2 min. COMPOUND C and gentisic acid (sodium salt, GA) were dissolved in the degassed buffer to give a concentration of 100 μg/mL for COMPOUND C and 2 mg/mL for GA. The resulting solution was immediately degassed under vacuum for another 1-2 min. To a clean sealed 5 mL vial was added 1.0 mL of the degassed 0.5 M ammonium acetate buffer (pH 8.0) containing 100 μg COMPOUND C and 2 mg GA. The solution was degassed again under vacuum. Upon addition of ˜20 μL of ^177LuCl3 solution (˜20 mCi) in 0.05 N HCl, the reaction mixture was heated at 100° C. for 5 min. After cooling to room temperature, a sample of the resulting solution was analyzed by HPLC (Method 3, injection volume=5 μL) and ITLC. […] To the solution above was added 0.5 mL of sodium ascorbate solution (40 mg/mL in 0.5 M ammonium acetate buffer, pH=7.4). The resulting mixture was then kept in a dry-ice box (−78° C.) for 7 days. Samples were analyzed at t=0, 3 and 7 days.
as §3, with “COMPOUND” for “The 0.5 M ammonium acetate buffer (pH 8.0) was first degassed under vacuum for 1-2 min. COMPOUND”, “1.0 μL” for “1.0 mL”, “of 2,3,4-THBA” for “of sodium ascorbate”, “solution (20” for “solution (40”
COMPOUND C and gentisic acid (sodium salt, GA) were dissolved in the degassed buffer to give a concentration of 100 μg/mL for COMPOUND C and 2 mg/mL for GA. The resulting solution was immediately degassed under vacuum for another 1-2 min. […]

Series [2] is described as follows: Solution stability of ^90Y-B at −78° C., RCP by radio-HPLC. Conditions: ^90Y-B prepared with GA. As to the method: as §1, §2
HPLC method 2 used a HP-1100 HPLC system with a UV/visible detector (λ=220 nm), an IN-US radio-detector, and a Zorbax C18 column (4.6 mm×250 mm, 80 Å pore size). The flow rate was 1 mL/min with a gradient mobile phase starting from 92% solvent A (0.025 M ammonium acetate buffer, pH 6.8) and 8% solvent B (acetonitrile) at 0 min to 90% solvent A and 10% solvent B at 18 min, followed by an isocratic wash using 40% of solvent A and 60% solvent B from 19 to 25 min.
The ITLC method used Gelman Sciences silica-gel ITLC paper strips and 1:1 mixture of acetone and saline as eluant. By this method, the radiolabeled compounds migrate to the solvent front while [^90Y]/^177Lu]colloid and [^90Y]/^177Lu]acetate remain at the origin. […]
The 0.5 M ammonium acetate buffer (pH 8.0) was first degassed under vacuum for 1-2 min. COMPOUND B and gentisic acid (sodium salt, GA) were dissolved in the degassed buffer to give a concentration of 100 μg/mL for COMPOUND B and 20 mg/mL for GA. The resulting solution was immediately degassed under vacuum for another 1-2 min. To a clean sealed 5 mL vial was added 1.0 mL of the degassed 0.5 M ammonium acetate buffer (pH 8.0) containing 100 μg COMPOUND B and 10 mg GA. The solution was degassed again under vacuum. Upon addition of ˜20 μL of ^90YCl3 solution (˜20 mCi) in 0.05 N HCl, the reaction mixture was heated at 100° C. for 5 min. After cooling to room temperature, a sample of the resulting solution was diluted 20-fold with saline containing gentisate (10 mg/mL), and was then analyzed by HPLC (Method 2, injection volume=1-2 μL) and ITLC. […] To the solution above was added 0.5 mL of sodium ascorbate solution (40 mg/mL in 0.5 M ammonium acetate buffer, pH=7.4). The resulting mixture was then kept in a dry-ice box (−78° C.) for 7 days. Samples were analyzed at t=0, 3 and 7 days.
The 0.5 M ammonium acetate buffer (pH 8.0) was first degassed under vacuum for 1-2 min. COMPOUND B and gentisic acid (sodium salt, GA) were dissolved in the degassed buffer to give a concentration of 100 μg/mL for COMPOUND B and 20 mg/mL for GA. The resulting solution was immediately degassed under vacuum for another 1-2 min. To a clean sealed 5 mL vial was added 1.0 mL of the degassed 0.5 M ammonium acetate buffer (pH 8.0) containing 100 μg COMPOUND B and 10 mg GA. The solution was degassed again under vacuum. Upon addition of ˜20 μL of ^90YCl3 solution (˜20 mCi) in 0.05 N HCl, the reaction mixture was heated at 100° C. for 5 min. After cooling to room temperature, a sample of the resulting solution was diluted 20-fold with saline containing gentisate (10 mg/mL), and was then analyzed by HPLC (Method 2, injection volume=1-2 μL) and ITLC. […] To the solution above was added 0.5 mL of 2,3,4-trihydroxybenzoic acid solution (20 mg/mL in 0.5 M ammonium acetate buffer, pH=6.5). The resulting mixture was then kept in a dry-ice box (−78° C.) for 7 days. Samples were analyzed at t=0, 3 and 7 days. […]

A short description of series [3]: Solution stability of ^177Lu-C at −78° C., RCP by radio-HPLC. Conditions: ^177Lu-C prepared using 2 mg GA, degassed, second stabilizer (20 mg AA, 20 mg DSA, 10 mg 2,3,4-THBA, 10 mg 3,4,5-THBA) added post-labeling.
The mark [4] stands for this setting: degassed, second stabilizer (20 mg AA, 20 mg DSA, 10 mg 2,3,4-THBA, 10 mg 3,4,5-THBA) added post-labeling.
The mark [5] stands for this setting: second stabilizer added post-labeling, t = 0 to 7 days.
The mark [6] stands for this setting: degassed, second stabilizer (20 mg AA, 20 mg DSA, 10 mg 2,3,4-THBA, 10 mg HABA) added post-labeling.

As for `O=C1O[C@H]([C@@H](O)CO)C([O-])=C1O.[Na+]` [AA, sodium ascorbate, reference compound], in series [1] (setting [4]), the “RCP (%) t = 0” value was determined as 97.6%, the “RCP (%) t = 3 days” value was determined as 97.5% and the “RCP (%) t = 7 days” value is 93.0%. The “RCP (%) change” value in series [1] (setting [5]) amounted to 4.6%. Further, in series [2] (setting [6]), the “RCP (%) t = 0” value was found to be 95.0%, the “RCP (%) t = 3 days” value is given as 93.9% and the “RCP (%) t = 7 days” value is given as 94.5%. Moreover, the “RCP (%) change” value in series [2] (setting [5]) stood at 0.5%. Moreover, in series [3], the “RCP (%) t = 1 day” value was found to be 97.7%.
